{"source": "patent US11471462B2", "about": "“Compositions and methods for detecting and treating diabetes” (THE BROAD INSTITUTE, INC., priority 2016, dated 2022)", "key": {"[1]": {"tested_on": "SLC16A11", "assay": "Compound treatment, SLC16A11 expression by ddPCR in NCIH716 cells", "type": "cell-based, human", "details": "same concentrations and treatment times as LINCS", "protocol": "A small number of the compounds that made the strongest positive connections to the SLC16A11 gene expression signature were selected and tested. […] Methotrexate was also included, which had been annotated as a dihydrofolate reductase inhibitor. SNU761 cells (derived from a human hepatocellular carcinoma) and NCIH716 cells (derived from a human cecum adenocarcinoma), which both express SLC16A11, were treated with the compounds. The same compound concentrations and treatment times were used as in the LINCS dataset experiments. […] For normalization, a different housekeeper gene, HPRT1, was used and obtained similar results with the mTOR inhibitors (FIGS. 14A and 14B).\nSNU761 (human hepatocellular carcinoma) and NCIH716 (human cecum adenocarcinoma) were cultured in RPMI Medium 1640 supplemented with 10% Fetal Bovine Serum (FBS), 100 μg/ml Streptomycin and 100 U/ml Penicillin. Cells were grown in a humidified CO2 incubator, at 37° C.\nFor the unbiased approach taken to investigate the compounds that connected to the SLC16A11 gene expression signature, compounds were obtained from compound management at the Broad Institute.\nSNU761 and NCIH716 cells were plated into 96 well plates at a density of 20,000 cells per well. Hepatocytes were plated into collagen coated 96 well plates (Corning, 354408) at a density of 50,000 cells per well. After 24 hours, cells were treated with compounds at a final concentration of 10 μM or vehicle control for the appropriate amount of time.\nAt the time of collection, cells in 96 well plates were lysed by directly adding 50 μL of RLT buffer (Qiagen). […]\n(§1) RNA was DNase treated and converted into cDNA using the High-Capacity RNA-to-cDNA kit (Thermo Fisher Scientific). The following FAM-labeled TaqMan Real-Time PCR assays (Thermo Fisher Scientific) were used to quantify gene expression: SLC16A11 (Hs00601062_g1), SLC16A13 (Hs00416832_m1), SLC16A1 (Hs01560299_m1). […] Droplets were generated and analyzed using a QX200 Droplet Generator and Reader system (BioRad). Data was extracted using QuantaSoft (BioRad) and analyzed using Microsoft Excel."}, "[2]": {"tested_on": "SLC16A1", "assay": "Compound treatment, SLC16A1 expression by ddPCR in NCIH716 cells", "type": "cell-based, human", "details": "10 μM for 24 hours", "protocol": "(§2) FIGS. 14A-14D provide graphs showing that mTOR inhibitors increase SLC16A11, but not SLC16A1 transcript levels. […] SLC16A11 (FIGS. 14A and 14B) and SLC16A1 (FIGS. 14C and 14D) expression was then assessed using droplet digital PCR (ddPCR). Bar plots depict relative fold-changes with respect to DMSO and error bars and standard deviations. Expression is normalized to housekeeping genes TBP or HPRT1.\n(§3) A small number of the compounds that made the strongest positive connections to the SLC16A11 gene expression signature were selected and tested. […] Methotrexate was also included, which had been annotated as a dihydrofolate reductase inhibitor. SNU761 cells (derived from a human hepatocellular carcinoma) and NCIH716 cells (derived from a human cecum adenocarcinoma), which both express SLC16A11, were treated with the compounds. […]\nas §1"}, "[3]": {"tested_on": "SLC16A1", "assay": "Compound treatment, SLC16A1 expression by ddPCR in primary human hepatocytes", "type": "cell-based", "details": "vs DMSO", "protocol": "(§4) SLC16A11 (denoted by A11 when normalized by TBP and A11* for HPRT1), SLC16A13 (A13), and SLC16A1 (A1) in comparison with DMSO treated cells.\n(§5) Primary human hepatocytes were purchased from Bioreclamation IVT. Hepatocyte lot used was BHL. Cells were thawed and immediately resuspended in CP media (Bioreclamation IVT) supplemented with torpedo antibiotic (Bioreclamation IVT). Cell concentration and viability were assessed prior to use. Cells were grown in a humidified CO2 incubator, at 37° C.\n(§6) SNU761 and NCIH716 cells were plated into 96 well plates at a density of 20,000 cells per well. Hepatocytes were plated into collagen coated 96 well plates (Corning, 354408) at a density of 50,000 cells per well. After 24 hours, cells were treated with compounds at a final concentration of 10 μM or vehicle control for the appropriate amount of time. […]\nas §1"}, "[4]": {"tested_on": "SLC16A11 (A11)", "assay": "ddPCR based screening assay for modulators of SLC16A11 expression (Z′)", "type": "cell-based, human", "details": "SNU 761 cells; compound as positive control", "excerpt": "As detailed herein above, SLC16A11 (A11) belongs to a family of monocarboxylate transporters. Expression of A11 was studied in SNU 761 cell lines. These liver cancer cells are ideal for studying SLC16A11 expression because A11 is expressed in higher quantity in liver cells, although expression of the gene in all tissues is extremely low. The 5 SNP risk haplotype causes lowered expression and interferes with protein-protein interactions between A11 and a cofactor protein, indicating loss of function. Therefore, increasing A11 expression in individuals with the risk haplotype is likely beneficial.\nThe quality of an assay can be quantified by Z′, a measure of how well the assay can differentiate between the positive and negative controls. Using the formula: […]\nFirst the cells were treated with inhibitor compounds, their RNA was extracted, and that RNA was used as a template to create DNA. Then, the DNA was quantified using droplet digital PCR (ddPCR), analyzed and quantified using QuantaSoft™ (BioRad). […]\nFrom the QuantaSoft scoring of each droplet, the means and standard deviations of SLC16A11 expression levels was determined in response to compound treatment. […] Points in light gray had the gene of interest and were scored as positive (FIG. 17C). SLC16A11 was scored in the graph. […]"}, "[5]": {"tested_on": "SLC16A1", "assay": "Compound treatment, SLC16A1 expression by ddPCR in SNU761 cells", "type": "cell-based, human", "details": "10 μM for 24 hours", "protocol": "as §2, §3, §1"}, "[6]": {"tested_on": "panel of 260 kinases", "details": "concentrations up to 10 μmol/L, cited from earlier work"}, "[7]": {"tested_on": "SLC16A11", "assay": "Compound treatment, SLC16A11 expression by ddPCR in primary human hepatocytes", "type": "cell-based", "details": "vs DMSO", "protocol": "as §4, §5, §6, §1"}, "[8]": {"tested_on": "SLC16A11", "assay": "Compound treatment, SLC16A11 expression by ddPCR in SNU761 cells", "type": "cell-based, human", "details": "SNU761 cells", "outline": "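SNU761 hepatocellular carcinoma cells, plated 24 h, treated with compounds at 10 μM final or vehicle, with treatment times matching the LINCS dataset. SLC16A11 mRNA quantified by TaqMan droplet digital PCR, normalized to TBP or HPRT1.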"}, "[9]": {"tested_on": "SLC16A13", "assay": "Compound treatment, SLC16A13 expression by ddPCR in primary human hepatocytes", "type": "cell-based", "details": "vs DMSO", "protocol": "as §4, §5, §6, §1"}}, "note": "Read-outs that look alike come from different tables or passages of the source.", "data": [{"smiles": "COc1ccc(-c2ccc3c(N4CCOC[C@@H]4C)nc(N4CCOC[C@@H]4C)nc3n2)cc1CO", "note": "[AZD-8055, [5-[2,4-Bis((3S)-3-methylmorpholin-4-yl)pyrido[2,3-d]pyrimidin-7-yl]-2-methoxyphenyl]methanol]", "values": [{"measurement": "SLC16A11 transcript levels, compound treated compared to DMSO treated cells", "setting": "[1]", "result": "about 3 fold"}, {"measurement": "SLC16A1 expression with respect to DMSO", "setting": "[2]", "result": "slight decrease"}, {"measurement": "SLC16A1 expression", "setting": "[3]", "result": "decreased"}, {"measurement": "A11 expression in manual ddPCR assay", "setting": "[4]", "result": "increased"}, {"measurement": "SLC16A1 expression with respect to DMSO", "setting": "[5]", "result": "slight decrease"}, {"measurement": "activity against a panel of 260 kinases", "setting": "[6]", "result": "not show significant activity"}, {"measurement": "activity against a panel of 260 kinases", "setting": "[6]; listed as AZD8055", "result": "no significant activity"}, {"measurement": "SLC16A11 expression", "setting": "[7]", "result": "increase SLC16A11 expression"}, {"measurement": "SLC16A11 (A11) transcript levels, dose response curve", "setting": "[8]; FIG. 16 top panel", "result": "increase"}, {"measurement": "SLC16A11 transcript levels, compound treated compared to DMSO treated cells", "setting": "[8]; same concentrations and treatment times as LINCS, ddPCR", "result": "about 3 fold"}, {"measurement": "avg_fc (SLC16A11 expression, compound treated vs DMSO treated cells)", "setting": "[8]; same doses and treatment times as in the LINCS dataset", "result": 4.253}, {"measurement": "increase in SLC16A11 expression, compound treated compared to DMSO treated cells", "setting": "[8]; unbiased test of 59 top and 20 middle LINCS compounds, LINCS doses and times", "result": "~4", "unit": "fold"}, {"measurement": "SLC16A13 expression", "setting": "[9]", "result": "decreased"}]}]}
